Where a name gives a salt, the structure may show the parent alone.
Columns and labels:
[1] = target: KRAS protein containing G12D mutation (Homo sapiens (Human), UniProt P01116, G12D); experiment: SOS-catalyzed nucleotide exchange assay (GNE), TR-FRET; type: biochemical; details: biotinylated KRAS G12D, SOS and GTP, 60-minute incubation
Procedure: Compounds are added to this complex and then after a 60-minute incubation time the mixture is treated with SOS and unlabeled GTP. Small molecule inhibitors stabilize the Bodipy-GDP complex whereas the untreated protein rapidly exchanges Bodipy-GDP for unlabeled GTP resulting in reduced TR-FRET signal.
This solution is referred to as biotinylated KRAS G12D stock solution.

[2] = system: AsPC-1 cells containing homozygous KRAS-G12D activating mutation; experiment: Cellular phospho-ERK assay (Examples 1a-106); type: cell-based; details: AsPC-1 cells, 2 hours, ratio of p-Erk vs total Erk, read-out: IC50 (nM) pERK (Cell)
Text: 5% CO? overnight. […] Assay plates were read on a EnVision Multimode Plate Reader (PerkinElmer) and the ratio of p-Erk vs total Erk in each well was used as the final readout.

[3] = system: AsPC-1 cells containing homozygous KRAS-G12D activating mutation; experiment: Cellular phospho-ERK assay with 10% FBS (Examples 107a-256); type: cell-based
Procedure: 5% CO2 for 2 hours. […] Assay plates were read on a EnVision Multimode Plate Reader (PerkinElmer) and the ratio of p-Erk vs total Erk in each well was used as the final readout.

[4] = Homo sapiens, ASPC1, 2 h, read-out: IC50 (nM) pERK (cell with FBS 10%), AsPC-1 cells, 10% fetal bovine serum, 2 hours, ratio of p-Erk vs total Erk

Chain of KRAS protein containing G12D mutation (P01116 other isoform, or with tags, fused parts or gaps G12D (already in the parent)): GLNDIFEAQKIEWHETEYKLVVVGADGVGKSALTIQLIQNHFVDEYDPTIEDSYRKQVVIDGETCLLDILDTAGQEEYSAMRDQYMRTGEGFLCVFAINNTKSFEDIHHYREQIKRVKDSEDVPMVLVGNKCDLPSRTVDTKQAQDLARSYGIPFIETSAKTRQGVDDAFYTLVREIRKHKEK

| SMILES | IC50 [1] [nM] | IC50 [2] [nM] | further results |
| --- | --- | --- | --- |
| CN(C)C[C@@]1(COc2nc(N3C[C@H]4CC[C@@](C)(C3)N4)c3cc(Cl)c(-c4c(F)cc(F)c5ccc(N)nc45)c(F)c3n2)CC1(F)F (single isomer, unassigned) [92a] | 11100 | 13200 | – |
| C#Cc1cccc2cc(O)cc(-c3c(F)cc4c(N5C[C@H]6CC[C@@](C)(C5)N6)nc(OCC5(CN6CC[C@@H](F)C6)CC5)nc4c3F)c12 (single isomer, unassigned) [103b, TFA] | 458 | – | IC50 ([2]; TFA): 2480 nM |
| Cc1c(Cl)cc2[nH]nc(C)c2c1-c1c(F)cc2c(N3CC4CCC(C3)N4)nc(OCC3(CN4CC[C@@H](F)C4)CC3)nc2c1F (single isomer, unassigned) [Ex 71a] | 18.9 | 505 | – |
| Cc1c(Cl)cc2[nH]nc(C)c2c1-c1c(F)cc2c(N3CC4CCC(C3)N4)nc(OCC3(CN4CC[C@@H](F)C4)CC3)nc2c1F (single isomer, unassigned) [Ex 71b] | 1340 | 4240 | – |
| Cc1cc2[nH]ncc2c(-c2c(F)cc3c(N4C[C@H]5CC[C@@](C)(C4)N5)nc(OC[C@]4(CN(C)C)CC4(F)F)nc3c2F)c1C(F)(F)F (single isomer, unassigned) [Ex 76b] | 597 | 4530 | – |
| Cc1cc2[nH]ncc2c(-c2c(F)cc3c(N4C[C@H]5CC[C@@](C)(C4)N5)nc(OCC4(CN5CC[C@@H](F)C5)CC4)nc3c2F)c1C(F)(F)F (single isomer, unassigned) [Ex 80b] | 1320 | 5970 | – |
| Oc1cc(-c2c(F)cc3c(N4CC5CC(F)C(C4)N5)nc(OCC4(CN5CCOCC5)CC4)nc3c2F)c2ccccc2c1 (single isomer, unassigned) [Ex. 3a, 4-(6,8-difluoro-4-(6-fluoro-3,8-diazabicyclo[3.2.1]octan-3-yl)-2-((1-(morpholinomethyl)cyclopropyl)methoxy)quinazolin-7-yl)naphthalen-2-ol] | 506 | 3610 | – |
| Oc1cc(-c2c(F)cc3c(N4CC5CC(F)C(C4)N5)nc(OCC4(CN5CCOCC5)CC4)nc3c2F)c2ccccc2c1 (single isomer, unassigned) [Ex. 3b, 4-(6,8-difluoro-4-(6-fluoro-3,8-diazabicyclo[3.2.1]octan-3-yl)-2-((1-(morpholinomethyl)cyclopropyl)methoxy)quinazolin-7-yl)naphthalen-2-ol] | 2160 | 8240 | – |
| C#Cc1cccc2cc(O)cc(-c3c(F)cc4c(N5C[C@H]6CC[C@@](C)(C5)N6)nc(OC[C@]5(CO)CC5(F)F)nc4c3F)c12 (single isomer, unassigned) [Ex. 90] | 0.565 | – | IC50 ([2]; Homo sapiens, ASPC1, 2 h): 564 nM |
| C[C@]12CC[C@H](CN(c3nc(OCC4(CN5CCOCC5)CC4)nc4c(F)c(-c5c(F)cc(F)c6ccc(N)nc56)c(Cl)cc34)C1)N2 (single isomer, unassigned) [Ex. 91a] | 11100 | 17600 | – |
| C[C@]12CC[C@H](CN(c3nc(OCC4(CN5CCOCC5)CC4)nc4c(F)c(-c5c(F)cc(F)c6ccc(N)nc56)c(Cl)cc34)C1)N2 (single isomer, unassigned) [Ex. 91b] | 1020 | 4160 | – |
| Cc1cc2[nH]ncc2c(C2Cc3nc(OC[C@]4(CN(C)C)CC4(F)F)nc(N4C[C@H]5CC[C@@](C)(C4)N5)c3C(=O)O2)c1C(F)(F)F (single isomer, unassigned) [Ex. 96a] | 1280 | 20800 | – |
| CN(C)C1CC[C@H]2C[C@@]12COc1nc(N2C[C@H]3CC[C@@](C)(C2)N3)c2cc(F)c(-c3cc(O)cc4ccccc34)c(F)c2n1 (single isomer, unassigned) [Example 12a] | 1.89 | 396 | – |
| CN(C)C1CC[C@H]2C[C@@]12COc1nc(N2C[C@H]3CC[C@@](C)(C2)N3)c2cc(F)c(-c3cc(O)cc4ccccc34)c(F)c2n1 (single isomer, unassigned) [Example 12b] | 2.07 | 841 | – |
| CN(C)CC1(COc2nc(N3CC4CC(O)C(C3)N4)c3cc(Cl)c(-c4cc(O)cc5ccccc45)c(F)c3n2)CC1 (single isomer, unassigned) [Example 19a] | 1180 | – | IC50 ([2]; Homo sapiens, ASPC1, 2 h): 50800 nM |
| CN(C)CC1(COc2nc(N3CC4CC(O)C(C3)N4)c3cc(Cl)c(-c4cc(O)cc5ccccc45)c(F)c3n2)CC1 (single isomer, unassigned) [Example 19b] | 1790 | 50800 | – |
| CN(C)CC1(COc2nc(N3CC4CC(O)C(C3)N4)c3cc(Cl)c(-c4cc(O)cc5ccccc45)c(F)c3n2)CC1 (single isomer, unassigned) [Example 22a, 3-(6-chloro-2-((1-((dimethyl-amino)methyl)cyclo-propy)methoxy)-8-fluoro-7-(3-hydroxy-naphthalen-1-yl)quinazolin-4-yl)-3,8-diazabicyclo[3.2.1]oc tan-6-ol] | 5090 | 50800 | – |
| CN(C)CC1(COc2nc(N3CC4CC(O)C(C3)N4)c3cc(Cl)c(-c4cc(O)cc5ccccc45)c(F)c3n2)CC1 (single isomer, unassigned) [Example 23, 3-(6-chloro-2-((1-((dimethyalmino)meth-yl)cyclopropyl)meth-oxy)-8-fluoro-7-(3-hydroxynaphthalen-1-yl)quinazolin-4-yl)-3,8-diazabicyclo[3.2.1]oc-tan-6-ol] | 4280 | 44800 | – |
| COCCNC[C@@]1(COc2nc(N3C[C@H]4CC[C@@](C)(C3)N4)c3cc(F)c(-c4c(C(F)(F)F)c(C)cc5[nH]ncc45)c(F)c3n2)CC1(F)F [compound 205, (1S,5R)-3-(2-(((R)-2,2-difluoro-1-(((2-methoxyethyl)amino)methyl)cyclopropyl)methoxy)-6,8-difluoro-7-(6-methyl-5-(trifluoromethyl)-1H-indazol-4-yl)quinazolin-4-yl)-1-methyl-3,8-diazabicyclo[3.2.1]octan-8-ium 2,2,2-trifluoroacetate] | 93.9 | – | IC50 [3, 4]: 9380 nM |
| CCc1cnn2cc(O)cc(-c3c(F)cc4c(N5C[C@H]6CC[C@@](C)(C5)N6)nc(OC[C@@]56CCCN5C[C@H](F)C6)nc4c3F)c12 [compound 229, 4-(6,8-difluoro-2-(((2R,7aS)-2-fluorotetrahydro-1H-pyrrolizin-7a(5H)-yl)methoxy)-4-((1S,5R)-1-methyl-3,8-diazabicyclo[3.2.1]octan-3-yl)quinazolin-7-yl)-3-ethylpyrazolo[1.5-a]pyridin-6-ol] | 98.5 | – | IC50 ([3]; read-out: IC50 (nM) pERK (cell with FBS 10%), AsPC-1 cells, 10% fetal bovine serum, 2 hours, ratio of p-Erk vs total Erk): 1740 nM |
| C#Cc1cccc2nc(N)nc(-c3c(F)cc4c(N5C[C@H]6CC[C@@H](C5)N6)nc(OC[C@@]56CCCN5C[C@H](F)C6)nc4c3F)c12 [compound 235, 4′-((1R,5S)-3,8-diazabicyclo[3.2.1]octan-3-yl)-5-ethynyl-6′,8′-difluoro-2′-(((2R,7aS)-2-fluorotetrahydro-1H-pyrrolizin-7a(5H)-yl)methoxy)-[4,7′-biquinazolin]-2-amine] | 91.7 | – | IC50 [3, 4]: 910 nM |
| [2H]c1c([2H])c(C#C)c2c(-c3c(F)cc4c(N5C[C@H]6CC[C@@](C)(C5)N6)nc(OC[C@@]56CCCN5C[C@H](F)C6)nc4c3F)c([2H])c([2H])c([2H])c2c1[2H] [compound 241, 7-(8-ethynylnaphthalen-1-yl-2,3,4,5,6,7-d6)-6,8-difluoro-2-(((2R,7aS)-2-fluorotetrahydro-1H-pyrrolizin-7a(5H)-yl)methoxy)-4-((1S,5R)-1-methyl-3,8-iazabicyclo[3.2.1]octan-3-yl)quinazoline, 2TFA] | 8.63 | – | IC50 [3, 4]: 1760 nM |
| C[C@]12CCC(CN(c3nc(OC[C@@]45CCCN4C[C@H](F)C5)nc4c(F)c(-c5cc(O)cc(Cl)c5OC(F)(F)F)c(F)cc34)C1)N2 [compound 244, 3-chloro-5-(6,8-difluoro-2-(((2RS,7aS)-2-fluorotetrahydro-1H-pyrrolizin-7a(5H)-yl)methoxy)-4-((1S,5R)-1-methyl-3,8-diazabicyclo[3.2.1]octan-3-yl)quina-zolin-7-yl)-4-(trifluoromethoxy)phenol] | 3.7 | – | IC50 [3, 4]: 161 nM |
| Cc1cc2[nH]nc(C#N)c2c(-c2c(F)cc3c(N4C[C@H]5CC[C@@H](C4)N5)nc(OC[C@@]45CCCN4C[C@H](F)C5)nc3c2F)c1C(F)F [compound 254, 4-(4-((1R,5S)-3,8-diazabicyclo[3.2.1]octan-3-yl)-6,8-difluoro-2-(((2R,7aS)-2-fluorotetrahydro-1H-pyrrolizin-7a(5H)-yl)methoxy)quinazolin-7-yl)-5-(difluoromethyl)-6-methyl-1H-indazole-3-carbonitrile] | 0.77 | – | IC50 [3, 4]: 80.3 nM |
| Cc1cc2[nH]nc(C#N)c2c(-c2c(F)cc3c(N4C[C@H]5CC[C@@H](C4)N5)nc(OC[C@@]45CCCN4C[C@H](F)C5)nc3c2F)c1OC(F)(F)Cl [compound 255, 4-(4-((1R,5S)-3,8-diazabicyclo[3.2.1]octan-3-yl)-6,8-difluoro-2-(((2R,7aS)-2-fluorotetrahydro-1H-pyrrolizin-7a(5H)-yl)methoxy)quinazolin-7-yl)-5-(chlorodifluoromethoxy)-6-methyl-1H-indazole-3-carbonitrile] | 0.79 | – | IC50 [3, 4]: 58.9 nM |

Source: US20240239788A1, “SMALL MOLECULE INHIBITORS OF KRAS G12D MUTANT” (Merck Sharp & Dohme LLC, priority 2021, published 2024)
